Measurements reported in patent US8461328B2, “Tricyclic heterocyclic compounds, compositions and methods of use thereof” (Genentech, Inc., priority 2010, dated 2013).

Tests used:
Type in all cases: biochemical
JAK1 = target: T1, JAK1 (Homo sapiens, UniProt P23458); test: JAK1 inhibition (Table 4); details: read-out: JAK1 Ki
T1 construct: made in house; host or cells: SF9 insect cells (baculovirus)

JAK3 = target: T2, JAK3 (Homo sapiens, UniProt P52333); test: JAK3 inhibition (Table 4); details: read-out: JAK3 Ki
T2 construct: made in house; host or cells: SF9 insect cells (baculovirus)
T2 sequence (P52333 783-1124): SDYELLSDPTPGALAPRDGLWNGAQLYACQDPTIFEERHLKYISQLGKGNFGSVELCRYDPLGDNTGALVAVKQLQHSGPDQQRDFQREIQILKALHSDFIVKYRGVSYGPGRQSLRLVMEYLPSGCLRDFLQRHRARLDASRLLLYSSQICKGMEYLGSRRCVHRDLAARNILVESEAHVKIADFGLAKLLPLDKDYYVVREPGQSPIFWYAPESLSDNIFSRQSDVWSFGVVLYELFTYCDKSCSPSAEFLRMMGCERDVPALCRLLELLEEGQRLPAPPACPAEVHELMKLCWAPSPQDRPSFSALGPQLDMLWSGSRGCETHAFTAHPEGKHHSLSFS

JAK2 = target: T3, JAK2 (Homo sapiens, UniProt O60674); test: JAK2 inhibition (Table 4); details: read-out: JAK2 Ki
T3 construct: made in house; host or cells: SF9 insect cells (baculovirus)
T3 sequence (O60674 812-1132): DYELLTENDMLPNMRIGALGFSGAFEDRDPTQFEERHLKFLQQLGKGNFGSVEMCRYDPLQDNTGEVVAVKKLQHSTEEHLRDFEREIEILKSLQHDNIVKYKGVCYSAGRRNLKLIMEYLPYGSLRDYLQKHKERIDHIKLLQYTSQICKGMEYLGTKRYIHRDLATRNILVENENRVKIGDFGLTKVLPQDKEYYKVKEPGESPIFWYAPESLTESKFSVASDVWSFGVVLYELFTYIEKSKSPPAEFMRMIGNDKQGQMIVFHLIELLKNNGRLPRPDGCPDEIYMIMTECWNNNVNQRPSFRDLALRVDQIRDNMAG

TYK2 = target: T4, TYK2 (Homo sapiens, UniProt P29597); test: TYK2 inhibition (Table 4)
T4 construct: made in house; host or cells: SF9 insect cells (baculovirus)
T4 sequence (P29597 873-1187): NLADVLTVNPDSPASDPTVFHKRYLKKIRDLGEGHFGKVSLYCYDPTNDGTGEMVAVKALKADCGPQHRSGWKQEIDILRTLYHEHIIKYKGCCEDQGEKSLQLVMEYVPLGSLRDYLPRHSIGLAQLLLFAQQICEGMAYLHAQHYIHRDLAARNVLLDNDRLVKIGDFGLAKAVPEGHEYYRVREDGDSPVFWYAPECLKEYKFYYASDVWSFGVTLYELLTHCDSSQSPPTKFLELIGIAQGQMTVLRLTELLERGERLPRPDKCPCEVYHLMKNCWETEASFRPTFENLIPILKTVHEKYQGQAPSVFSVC

T1 sequence (P23458 852-1154): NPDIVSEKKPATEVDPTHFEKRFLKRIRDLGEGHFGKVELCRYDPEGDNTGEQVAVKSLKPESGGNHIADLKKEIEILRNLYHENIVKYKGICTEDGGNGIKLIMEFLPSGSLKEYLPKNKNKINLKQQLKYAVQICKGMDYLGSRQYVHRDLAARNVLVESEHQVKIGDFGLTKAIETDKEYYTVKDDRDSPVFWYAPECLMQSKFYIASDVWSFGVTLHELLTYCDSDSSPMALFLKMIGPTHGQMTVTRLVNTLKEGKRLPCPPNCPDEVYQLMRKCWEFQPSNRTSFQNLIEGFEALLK

`CC(C)(O)Cc1nc2cnc3[nH]ccc3c2n1C1CCNCC1` [Example 173, 2-Methyl-1-(1-piperidin-4-yl-1,6-dihydro-1,2,3,5,6-tetraaza-as-indacen-2-yl)-propan-2-ol] was tested, and the Ki (JAK1) was 215 nM and the Ki (JAK3) was 3900 nM.

`Cc1nc2cnc3[nH]ccc3c2n1C(C)C1CCCO1` (single isomer, unassigned) [Example 427, 2-Methyl-1-[1-(tetrahydro-furan-2-yl)-ethyl]-1,6-dihydro-1,3,5,6-tetraaza-as-indacene] gave a Ki (JAK1) of 201 nM and a Ki (JAK2) of 167 nM.

In the case of `O=C(c1nc2cnc3[nH]ccc3c2n1C1CCN(Cc2ccccc2)CC1)N1CCOCC1` [Example 237, [1-(1-Benzyl-piperidin-4-yl)-1,6-dihydro-1,3,5,6-tetraaza-as-indacen-2-yl]-morpholin-4-yl-methanone], the Ki (JAK1) is reported as 106 nM, the Ki (JAK3) is reported as 47 nM and the Ki (JAK2) is reported as 494 nM.

Compound `CC(O)c1nc2cnc3[nH]ccc3c2n1C1CCCN(C(=O)CC2CCCO2)C1` (centres unmarked) [Example 789, 1-{3-[2-(1-Hydroxy-ethyl)-6H-1,3,5,6-tetraaza-as-indacen-1-yl]-piperidin-1-yl}-2-(tetrahydro-furan-2-yl)-ethanone] has a Ki (JAK1) of 438 nM.

Compound `C[C@@H](O)c1nc2cnc3[nH]ccc3c2n1C1CCN(CC(=O)N2CCOCC2)CC1` [Example 870, 2-{4-[2-((R)-1-Hydroxy-ethyl)-6H-1,3,5,6-tetraaza-as-indacen-1-yl]-piperidin-1-yl}-1-morpholin-4-yl-ethanone] has a Ki (JAK1) of 267 nM, a Ki (JAK3) of 1370 nM and a Ki (JAK2) of 1440 nM.

In the case of `COCC(=O)NC1CCCC(n2cnc3cnc4[nH]ccc4c32)C1` (single isomer, unassigned) [Example 483, 2-Methoxy-N-[3-(6H-1,3,5,6-tetraaza-as-indacen-1-yl)-cyclohexyl]-acetamide], the Ki (JAK1) is reported as 472 nM, the Ki (JAK3) is reported as 613 nM and the Ki (JAK2) is reported as 832 nM.

Work on `COCCNc1nc2cnc3[nH]ccc3c2n1C1CCNCC1` [Example 657, (2-Methoxy-ethyl)-(1-piperidin-4-yl-1,6-dihydro-1,2,3,5,6-tetraaza-as-indacen-2-yl)-amine] yielded a Ki (JAK1) of 29.1 nM, a Ki (JAK3) of 668 nM and a Ki (JAK2) of 1280 nM.

`c1ccc(CN2CCC(n3c(CN4CCOCC4)nc4cnc5[nH]ccc5c43)CC2)cc1` [Example 155, 1-(1-Benzyl-piperidin-4-yl)-2-morpholin-4-ylmethyl-1,6-dihydro-1,2,3,5,6-tetraaza-as-indacene] was tested, and the Ki (JAK1) was 120 nM, the Ki (JAK3) was 304 nM and the Ki (JAK2) was 452 nM.

In the case of `Cc1ncc(CN2CCC(n3c([C@@H](C)O)nc4cnc5[nH]ccc5c43)CC2)n1C` [Example 830, (R)-1-{1-[1-(2,3-Dimethyl-3H-imidazol-4-ylmethyl)-piperidin-4-yl]-1,6-dihydro-1,3,5,6-tetraaza-as-indacen-2-yl}-ethanol], the Ki (JAK1) is reported as 109 nM, the Ki (JAK3) is reported as 711 nM and the Ki (JAK2) is reported as 1730 nM.

`CN1CCC(C(=O)N2CCC(n3cnc4cnc5[nH]ccc5c43)CC2)C1` (racemic) [Example 452, (1-Methyl-pyrrolidin-3-yl)-[4-(6H-1,3,5,6-tetraaza-as-indacen-1-yl)-piperidin-1-yl]-methanone] showed a Ki (JAK1) of 316 nM and a Ki (JAK2) of 1170 nM.

`C[C@@H](O)c1nc2cnc3[nH]ccc3c2n1[C@@H]1CCCN(C(=O)CCn2ccnc2)C1` [Example 797, 1-{(R)-3-[2-((R)-1-Hydroxy-ethyl)-6H-1,3,5,6-tetraaza-as-indacen-1-yl]-piperidin-1-yl}-3-imidazol-1-yl-propan-1-one] was tested, and the Ki (JAK1) was 159 nM, the Ki (JAK3) was 1630 nM and the Ki (JAK2) was 1750 nM.

With `c1cncc(-c2nc3cnc4[nH]ccc4c3n2C2CCNCC2)c1` [Example 153, 1-Piperidin-4-yl-2-pyridin-3-yl-1,6-dihydro-1,2,3,5,6-tetraaza-as-indacene] the Ki (JAK1) was 181 nM, the Ki (JAK3) was 784 nM and the Ki (JAK2) was 587 nM.

Compound `CCn1cc(CN2CCC(n3c([C@@H](C)O)nc4cnc5[nH]ccc5c43)CC2)c(C)n1` [Example 829, (R)-1-{1-[1-(1-Ethyl-3-methyl-1H-pyrazol-4-ylmethyl)-piperidin-4-yl]-1,6-dihydro-1,3,5,6-tetraaza-as-indacen-2-yl}-ethanol] has a Ki (JAK1) of 94.3 nM, a Ki (JAK3) of 1320 nM and a Ki (JAK2) of 939 nM.

With `COC1CCC(C(=O)N2CCCC(n3c(C(C)O)nc4cnc5[nH]ccc5c43)C2)CC1` (centres unmarked) [Example 799, {3-[2-(1-Hydroxy-ethyl)-6H-1,3,5,6-tetraaza-as-indacen-1-yl]-piperidin-1-yl}-(4-methoxy-cyclohexyl)-methanone] the Ki (JAK1) was 456 nM.

In the case of `CN1CCCC(C(=O)N2CCC(n3cnc4cnc5[nH]ccc5c43)CC2)C1` (single isomer, unassigned) [Example 454, (1-Methyl-piperidin-3-yl)-[4-(6H-1,3,5,6-tetraaza-as-indacen-1-yl)-piperidin-1-yl]-methanone], the Ki (JAK1) is reported as 547 nM and the Ki (JAK2) is reported as 1310 nM.

With `CN1CCCC(C(=O)N2CCC(n3cnc4cnc5[nH]ccc5c43)CC2)C1` (single isomer, unassigned) [Example 453, (1-Methyl-piperidin-3-yl)-[4-(6H-1,3,5,6-tetraaza-as-indacen-1-yl)-piperidin-1-yl]-methanone] the Ki (JAK1) was 263 nM and the Ki (JAK2) was 1410 nM.

`COCCC(=O)N1CCC[C@@H](n2c([C@@H](C)O)nc3cnc4[nH]ccc4c32)C1` [Example 784, 1-{(R)-3-[2-((R)-1-Hydroxy-ethyl)-6H-1,3,5,6-tetraaza-as-indacen-1-yl]-piperidin-1-yl}-3-methoxy-propan-1-one] gave a Ki (JAK1) of 224 nM.

With `CC(C)(C)OC(=O)N1CC(F)(F)C[C@H]1C(=O)N1CCC(n2cnc3cnc4[nH]ccc4c32)CC1` [Example 243, (S)-4,4-Difluoro-2-[4-(6H-1,3,5,6-tetraaza-as-indacen-1-yl)-piperidine-1-carbonyl]-pyrrolidine-1 carboxylic acid tert-butyl ester] the Ki (JAK1) was 357 nM and the Ki (JAK2) was 446 nM.

With `c1cc2c(ncc3nc(C4CCCN4)n(C4CCCOC4)c32)[nH]1` (single isomer, unassigned) [Example 666] the Ki (JAK1) was 1690 nM and the Ki (JAK3) was 4010 nM.

`COCCN1CCCC[C@H]1C(=O)N1CCC(n2cnc3cnc4[nH]ccc4c32)CC1` [Example 952, [(S)-1-(2-Methoxy-ethyl)-piperidin-2-yl]-[4-(6H-1,3,5,6-tetraaza-as-indacen-1-yl)-piperidin-1-yl]-methanone] gave a Ki (JAK1) of 142 nM and a Ki (JAK2) of 628 nM.

`CC(O)c1nc2cnc3[nH]ccc3c2n1C1CCCN(C(=O)C2CC(=O)N(C)C2)C1` (centres unmarked) [Example 787, 4-{3-[2-(1-Hydroxy-ethyl)-6H-1,3,5,6-tetraaza-as-indacen-1-yl]-piperidine-1-carbonyl}-1-methyl-pyrrolidin-2-one] was tested, and the Ki (JAK1) was 464 nM and the Ki (JAK3) was 2490 nM.

For `CS(=O)(=O)NCc1nc2cnc3[nH]ccc3c2n1[C@H]1CCCOC1` [Example 855, (S)—N-[1-(Tetrahydro-pyran-3-yl)-1,6-dihydro-1,3,5,6-tetraaza-as-indacen-2-ylmethyl]-methanesulfonamide], the Ki (TYK2) was 112 nM, the Ki (JAK3) was 493 nM and the Ki (JAK2) was 117 nM.

For `CS(=O)(=O)NCc1nc2cnc3[nH]ccc3c2n1C1CCN(CCF)CC1` [Example 913, N-{1-[1-(2-Fluoro-ethyl)-piperidin-4-yl]-1,6-dihydro-1,3,5,6-tetraaza-as-indacen-2-ylmethyl}-methanesulfonamide], the Ki (TYK2) was 116 nM, the Ki (JAK3) was 61.4 nM and the Ki (JAK2) was 54.7 nM.

Compound `N#CCCN[C@H]1CC[C@@H](n2cnc3cnc4[nH]ccc4c32)CC1` [Example 319, 3-[4-(6H-1,3,5,6-Tetraaza-as-indacen-1-yl)-cyclohexylamino]-propionitrile] has a Ki (TYK2) of 77.8 nM, a Ki (JAK3) of 82.9 nM and a Ki (JAK2) of 31.2 nM.

With `CC(C)(C)OC(=O)N[C@H]1CC[C@@H](n2cnc3cnc4[nH]ccc4c32)CC1` [Example 288, [4-(6H-1,3,5,6-Tetraaza-as-indacen-1-yl)-cyclohexyl]-carbamic acid tert-butyl ester] the Ki (TYK2) was 110 nM, the Ki (JAK3) was 206 nM and the Ki (JAK2) was 11.9 nM.

`CC(C)(CF)N1CCC(n2c(CNS(C)(=O)=O)nc3cnc4[nH]ccc4c32)CC1` [Example 693, N-{1-[1-(2-Fluoro-1,1-dimethyl-ethyl)-piperidin-4-yl]-1,6-dihydro-1,2,3,5,6-tetraaza-as-indacen-2-ylmethyl}-methanesulfonamide] gave a Ki (TYK2) of 332 nM, a Ki (JAK3) of 303 nM and a Ki (JAK2) of 72.1 nM.

With `CN1CCCCC1C(=O)N1CCC(n2cnc3cnc4[nH]ccc4c32)CC1` (single isomer, unassigned) [Example 196, (1-Methyl-piperidin-2-yl)-[4-(6H-1,2,3,5,6-tetraaza-as-indacen-1-yl)-piperidin-1-yl]-methanone] the Ki (TYK2) was 295 nM, the Ki (JAK3) was 1980 nM and the Ki (JAK2) was 94.6 nM.

`N#C[C@@H]1CCN([C@H]2CC[C@H](n3cnc4cnc5[nH]ccc5c43)CC2)C1` [Example 596, Trans (R)-1-[4-(6H-1,2,3,5,6-tetraaza-as-indacen-1-yl)-cyclohexyl]-pyrrolidine-3-carbonitrile] was tested, and the Ki (TYK2) was 17.4 nM, the Ki (JAK3) was 67.4 nM and the Ki (JAK2) was 5.51 nM.

`CC(=O)NCc1nc2cnc3[nH]ccc3c2n1C1CCCCC1` [Example 918, N-(1-Cyclohyl-1,6-dihydro-1,3,5,6-tetraaza-as-indacen-2-ylmethyl)-acetamide] was tested, and the Ki (TYK2) was 30.1 nM, the Ki (JAK3) was 60 nM and the Ki (JAK2) was 93.9 nM.

In the case of `CC(C)N1CCCC[C@H]1C(=O)N1CCC(n2cnc3cnc4[nH]ccc4c32)CC1` [Example 950, ((S)-1-Isopropyl-piperidin-2-yl)-[4-(6H-1,3,5,6-tetraaza-as-indacen-1-yl)-piperidin-1-yl]-methanone], the Ki (JAK1) is reported as 255 nM and the Ki (JAK2) is reported as 1420 nM.
